Data reported in patent US9138436B2, “Inhibitors of Bruton's tyrosine kinase” (PHARMACYCLICS LLC, priority 2011, dated 2015).
pIC50: −log10 of the molar value.

target: Btk (Homo sapiens, UniProt Q06187); experiment: Btk in vitro inhibitory activity, acellular kinase assay (TR-FRET); assay type: biochemical
Description: Btk kinase activity is determined using a time-resolved fluorescence resonance energy transfer (TR-FRET) methodology. Measurements are performed in a reaction volume of 50 μL using 96-well assay plates. Kinase enzyme, inhibitor, ATP (at the Km for the kinase), and 1 μM peptide substrate (Biotin-AVLESEEELYSSARQ-NH2) are incubated in a reaction buffer composed of 20 mM Tris, 50 mM NaCl, MgCl2 (5-25 mM depending on the kinase), MnCl2 (0-10 mM), 1 mM DTT, 0.1 mM EDTA, 0.01% bovine serum albumin, 0.005% Tween-20, and 10% DMSO at pH 7.4 for one hour. The reaction is quenched by the addition of 1.2 equivalents of EDTA (relative to divalent cation) in 25 μL of 1× Lance buffer (Perkin-Elmer). Streptavidin-APC (Perkin-Elmer) and Eu-labeled p-Tyr100 antibody (Perkin-Elmer) in 1× Lance buffer are added in a 25 μL volume to give final concentrations of 100 nM and 2.5 nM, respectively, and the mixture is allowed to incubate for one hour. The TR-FRET signal is measured on a multimode plate reader with an excitation wavelength (λEx) of 330 nm and detection wavelengths (λEm) of 615 and 665 nm. Activity is determined by the ratio of the fluorescence at 665 nm to that at 615 nm. For each compound, enzyme activity is measured at various concentrations of compound. Negative control reactions are performed in the absence of inhibitor in replicates of six, and two no-enzyme controls were used to determine baseline fluorescence levels. Inhibition constants, Ki(app), are obtained using the program BatchKi (Kuzmic et al. (2000), Anal. Biochem. 286:45-50). IC50s are obtained according to the equation: IC50={Ki(app)/(1+[ATP]/Km^ATP)}+[E]total/2;
For all kinases, [ATP]=Km^ATP, [Btk]total=0.5 nM and [Lck]total=6 nM.

Sequence of Btk (Q06187 whole entry): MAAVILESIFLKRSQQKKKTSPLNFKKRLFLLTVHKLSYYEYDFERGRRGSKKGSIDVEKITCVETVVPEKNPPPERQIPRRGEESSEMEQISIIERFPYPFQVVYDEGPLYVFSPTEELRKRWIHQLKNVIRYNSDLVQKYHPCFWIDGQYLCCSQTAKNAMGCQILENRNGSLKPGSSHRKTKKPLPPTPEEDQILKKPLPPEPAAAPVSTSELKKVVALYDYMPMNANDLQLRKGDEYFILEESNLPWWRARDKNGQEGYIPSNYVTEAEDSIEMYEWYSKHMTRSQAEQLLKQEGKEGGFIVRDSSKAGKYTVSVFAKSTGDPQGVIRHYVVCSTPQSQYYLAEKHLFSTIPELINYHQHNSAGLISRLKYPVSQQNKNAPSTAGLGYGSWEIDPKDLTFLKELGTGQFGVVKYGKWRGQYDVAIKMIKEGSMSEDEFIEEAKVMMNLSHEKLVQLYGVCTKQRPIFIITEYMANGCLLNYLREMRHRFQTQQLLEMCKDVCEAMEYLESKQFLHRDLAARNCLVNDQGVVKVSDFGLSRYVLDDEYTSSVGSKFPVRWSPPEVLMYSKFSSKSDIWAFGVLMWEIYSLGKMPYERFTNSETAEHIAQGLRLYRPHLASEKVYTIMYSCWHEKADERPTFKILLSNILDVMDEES

pIC50, > 7.00:
CC(C)N(C/C=C/C(=O)N1CCC[C@@H](n2nc(-c3ccc(Oc4ccccc4)cc3)c3c(N)ncnc32)C1)C1CC1 [Example 2t, (R,E)-1-(3-(4-amino-3-(4-phenoxyphenyl)-1H-pyrazolo[3,4-d]pyrimidin-1-yl)piperidin-1-yl)-4-(cyclopropyl(isopropyl)amino)but-2-en-1-one]
CN(C/C=C/C(=O)N1CC[C@@H](n2nc(-c3ccc(Oc4ccccc4)cc3)c3c(N)ncnc32)C1)C1CC1 [Example 2u, (R,E)-1-(3-(4-amino-3-(4-phenoxyphenyl)-1H-pyrazolo[3,4-d]pyrimidin-1-yl)pyrrolidin-1-yl)-4-(cyclopropyl(methyl)amino)but-2-en-1-one]
CCN(C/C=C/C(=O)N1CC[C@@H](n2nc(-c3ccc(Oc4ccccc4)cc3)c3c(N)ncnc32)C1)C1CC1 [Example 2v, (R,E)-1-(3-(4-amino-3-(4-phenoxyphenyl)-1H-pyrazolo[3,4-d]pyrimidin-1-yl)pyrrolidin-1-yl)-4-(cyclopropyl(ethyl)amino)but-2-en-1-one]
CN(C/C=C/C(=O)N1CC[C@@H](n2nc(-c3ccc(Oc4ccccc4)cc3)c3c(N)ncnc32)C1)C1CCCCC1 [Example 2w, (R,E)-1-(3-(4-amino-3-(4-phenoxyphenyl)-1H-pyrazolo[3,4-d]pyrimidin-1-yl)pyrrolidin-1-yl)-4-(cyclohexyl(methyl)amino)but-2-en-1-one]
Nc1ncnc2c1c(-c1ccc(Oc3ccccc3)cc1)nn2[C@@H]1CCN(C(=O)/C=C/CNC2CCCCC2)C1 [Example 2x, (R,E)-1-(3-(4-amino-3-(4-phenoxyphenyl)-1H-pyrazolo[3,4-d]pyrimidin-1-yl)pyrrolidin-1-yl)-4-(cyclohexylamino)but-2-en-1-one]
CN(C/C=C/C(=O)N1CC[C@@H](n2nc(-c3ccc(Oc4ccccc4)cc3)c3c(N)ncnc32)C1)C1CCCC1 [Example 2y, (R,E)-1-(3-(4-amino-3-(4-phenoxyphenyl)-1H-pyrazolo[3,4-d]pyrimidin-1-yl)pyrrolidin-1-yl)-4-(cyclopentyl(methyl)amino)but-2-en-1-one]
Nc1ncnc2c1c(-c1ccc(Oc3ccccc3)cc1)nn2[C@@H]1CCN(C(=O)/C=C/CNC2CCCC2)C1 [Example 2z, (R,E)-1-(3-(4-amino-3-(4-phenoxyphenyl)-1H-pyrazolo[3,4-d]pyrimidin-1-yl)pyrrolidin-1-yl)-4-(cyclopentylamino)but-2-en-1-one]
Nc1ncnc2c1c(-c1ccc(Oc3ccccc3)cc1)nn2[C@@H]1CCN(C(=O)/C=C/CNC2CC2)C1 [Example 3a, (R,E)-1-(3-(4-amino-3-(4-phenoxyphenyl)-1H-pyrazolo[3,4-d]pyrimidin-1-yl)pyrrolidin-1-yl)-4-(cyclopropylamino)but-2-en-1-one]
CN(C/C=C/C(=O)N1CC[C@@H](n2nc(-c3ccc(Oc4cccc(F)c4)cc3)c3c(N)ncnc32)C1)C1CCC1 [Example 4b, (R,E)-1-(3-(4-amino-3-(4-(3-fluorophenoxy)phenyl)-1H-pyrazolo[3,4-d]pyrimidin-1-yl)pyrrolidin-1-yl)-4-(cyclobutyl(methyl)amino)but-2-en-1-one]
CN(C/C=C/C(=O)N1CC[C@@H](n2nc(-c3ccc(Oc4cccc(F)c4)cc3)c3c(N)ncnc32)C1)C1CC1 [Example 4c, (R,E)-1-(3-(4-amino-3-(4-(3-fluorophenoxy)phenyl)-1H-pyrazolo[3,4-d]pyrimidin-1-yl)pyrrolidin-1-yl)-4-(cyclopropyl(methyl)amino)but-2-en-1-one]
CCN(C/C=C/C(=O)N1CCC[C@@H](n2nc(-c3ccc(Oc4ccccc4)cc3)c3c(N)ncnc32)C1)C1CC1 [Example 5a, (R,E)-1-(3-(4-amino-3-(4-phenoxyphenyl)-1H-pyrazolo[3,4-d]pyrimidin-1-yl)piperidin-1-yl)-4-(cyclopropyl(ethyl)amino)but-2-en-1-one]
CN(C/C=C/C(=O)N1CCC(n2nc(-c3ccc(Oc4ccccc4)cc3)c3c(N)ncnc32)CC1)C1CC1 [Example 5b, (E)-1-(4-(4-amino-3-(4-phenoxyphenyl)-1H-pyrazolo[3,4-d]pyrimidin-1-yl)piperidin-1-yl)-4-(cyclopropyl(methyl)amino)but-2-en-1-one]
CN(C/C=C/C(=O)N1CC(n2nc(-c3ccc(Oc4ccccc4)cc3)c3c(N)ncnc32)C1)C1CC1 [Example 5c, (E)-1-(3-(4-amino-3-(4-phenoxyphenyl)-1H-pyrazolo[3,4-d]pyrimidin-1-yl)azetidin-1-yl)-4-(cyclopropyl(methyl)amino)but-2-en-1-one]
CN(C/C=C/C(=O)N1CC[C@@H](n2cc(-c3ccc(Oc4ccccc4)cc3)c3c(N)ncnc32)C1)C1CC1 [Example 6b, (R,E)-1-(3-(4-amino-5-(4-phenoxyphenyl)-7H-pyrrolo[2,3-d]pyrimidin-7-yl)pyrrolidin-1-yl)-4-(cyclopropyl(methyl)amino)but-2-en-1-one]
CN(C(=O)/C=C/CN(C)C1CC1)c1ccc(-n2nc(-c3ccc(Oc4ccccc4)cc3)c3c(N)ncnc32)cc1 [Example 7b, (E)-N-(4-(4-amino-3-(4-phenoxyphenyl)-1H-pyrazolo[3,4-d]pyrimidin-1-yl)phenyl)-4-(cyclopropyl(methyl)amino)-N-methylbut-2-enamide]
CN(C(=O)/C=C/CN(C)C1CCC1)c1ccc(-n2nc(-c3ccc(Oc4ccccc4)cc3)c3c(N)ncnc32)cc1 [Example 7c, (E)-N-(4-(4-amino-3-(4-phenoxyphenyl)-1H-pyrazolo[3,4-d]pyrimidin-1-yl)phenyl)-4-(cyclobutyl(methyl)amino)-N-methylbut-2-enamide]
CN(C(=O)/C=C/CN(C)C1CC1)c1cccc(-n2nc(-c3ccc(Oc4ccccc4)cc3)c3c(N)ncnc32)c1 [Example 7d, (E)-N-(3-(4-amino-3-(4-phenoxyphenyl)-1H-pyrazolo[3,4-d]pyrimidin-1-yl)phenyl)-4-(cyclopropyl(methyl)amino)-N-methylbut-2-enamide]
CN(C(=O)/C=C/CN(C)C1CCC1)c1cccc(-n2nc(-c3ccc(Oc4ccccc4)cc3)c3c(N)ncnc32)c1 [Example 7e, (E)-N-(3-(4-amino-3-(4-phenoxyphenyl)-1H-pyrazolo[3,4-d]pyrimidin-1-yl)phenyl)-4-(cyclobutyl(methyl)amino)-N-methylbut-2-enamide]
CN(C/C=C/C(=O)Nc1cccc(-n2nc(-c3ccc(Oc4ccccc4)cc3)c3c(N)ncnc32)c1)C1CC1 [Example 7f, (E)-N-(3-(4-amino-3-(4-phenoxyphenyl)-1H-pyrazolo[3,4-d]pyrimidin-1-yl)phenyl)-4-(cyclopropyl(methyl)amino)but-2-enamide]
CN(C/C=C/C(=O)Nc1cccc(-n2nc(-c3ccc(Oc4ccccc4)cc3)c3c(N)ncnc32)c1)C1CCC1 [Example 7g, (E)-N-(3-(4-amino-3-(4-phenoxyphenyl)-1H-pyrazolo[3,4-d]pyrimidin-1-yl)phenyl)-4-(cyclobutyl(methyl)amino)but-2-enamide]
CN(C(=O)/C=C/CN(C)C1CC1)c1cccc(-n2cc(-c3ccc(Oc4ccccc4)cc3)c3c(N)ncnc32)c1 [Example 8a]
